Assay results published in patent US8778966B2, “Quinolinone derivatives as PARP and tank inhibitors” (Janssen Pharmaceutica, NV, priority 2007, dated 2014).

How the values were obtained:
Human PARP-1 enzyme = molecular target: T1, Human PARP-1 enzyme (Homo sapiens, UniProt P09874); assay: In vitro Scintillation Proximity Assay (SPA) for PARP-1 inhibitory activity; assay type: biochemical; details: for IC50: read-out: in vitro SPA assay PARP-1 pIC50 (converted)
T1 construct: purchased Trevigen
Summary of the method: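 SPA assay: nicked-DNA-activated PARP-1 (0.1–0.2 μg/ml) ADP-ribosylates biotinylated histones (2 μg/ml) using [3H]-NAD+, 20 min at RT in Tris pH 8/DTT/MgCl2, stopped with 2 mM NAD+. Blank-subtracted cpm expressed as % control; IC50 by linear interpolation, reported as pIC50 (10−5 to 3×10−9 M tested).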

PC3 cells = assay: EB1 Comet (microtubule disruption) assay; assay type: cell-based, human; details: Homo sapiens, PC-3, 1 h, 1 hour treatment, read-out: EB1 pLAC (converted)
Procedure: The Eb1 Comet assay relies on the detection of the Eb1 protein at the plus end of polymerizing microtubules (Mimori-Kiyosue, 2000) using indirect immunofluorescence. Disruption of microtubule dynamics through de-polymerization or stabilization results in a de-localization of Eb1 from the growing microtubule ends and this is visualized by the disappearance of Eb1 containing cytoplasmic foci.
Briefly, human prostate cancer PC3 cells obtained from the American Type Culture Collection were grown in 96-well plates (Greiner, cat. no. 655090) in HAM's F12 medium as recommended by the provider (ATCC). The cells were treated for 1 hour at 37° C. with compounds dissolved in DMSO (0.6% final DMSO concentration). The culture medium was then removed by aspiration and the cells were fixed by adding cold methanol (−20 C). After a 15 min. incubation at −20 C, the cells were washed twice with DPBS (Gibco) containing 0.5% Triton X-100. Mouse Eb1 antibody (BD Transduction Laboratories, cat. no. 610534) was added to the cells (1/250 dilution in DPBS containing 1% BSA) and incubated overnight at room temperature. The antibody was subsequently removed and the cells washed twice with DPBS, 0.5% Triton X-100. Secondary goat anti-mouse antibody conjugated to Alexa 488 fluorescent dye (Molecular Probes) was added at a 1/500 dilution in DPBS, 1% BSA and incubated for 1 hour at 37 C. The cells were washed twice with DPBS, 0.5% Triton X-100 and then DPBS containing 0.5% Triton X-100 and 1/5000 Hoechst 33342 (Molecular Probes) was added. Microscopy based Eb1 foci visualization was carried out using an IN Cell Analyser 1000 (Amersham Biosciences) using a 20× objective. Compound dependent microtubule disruption was visually determined by the disappearance in Eb1 foci. The lowest active concentration (LAC) was determined as the concentration where Eb1 foci were absent in at least 50% of the treated cells.

T1 sequence (P09874 whole entry): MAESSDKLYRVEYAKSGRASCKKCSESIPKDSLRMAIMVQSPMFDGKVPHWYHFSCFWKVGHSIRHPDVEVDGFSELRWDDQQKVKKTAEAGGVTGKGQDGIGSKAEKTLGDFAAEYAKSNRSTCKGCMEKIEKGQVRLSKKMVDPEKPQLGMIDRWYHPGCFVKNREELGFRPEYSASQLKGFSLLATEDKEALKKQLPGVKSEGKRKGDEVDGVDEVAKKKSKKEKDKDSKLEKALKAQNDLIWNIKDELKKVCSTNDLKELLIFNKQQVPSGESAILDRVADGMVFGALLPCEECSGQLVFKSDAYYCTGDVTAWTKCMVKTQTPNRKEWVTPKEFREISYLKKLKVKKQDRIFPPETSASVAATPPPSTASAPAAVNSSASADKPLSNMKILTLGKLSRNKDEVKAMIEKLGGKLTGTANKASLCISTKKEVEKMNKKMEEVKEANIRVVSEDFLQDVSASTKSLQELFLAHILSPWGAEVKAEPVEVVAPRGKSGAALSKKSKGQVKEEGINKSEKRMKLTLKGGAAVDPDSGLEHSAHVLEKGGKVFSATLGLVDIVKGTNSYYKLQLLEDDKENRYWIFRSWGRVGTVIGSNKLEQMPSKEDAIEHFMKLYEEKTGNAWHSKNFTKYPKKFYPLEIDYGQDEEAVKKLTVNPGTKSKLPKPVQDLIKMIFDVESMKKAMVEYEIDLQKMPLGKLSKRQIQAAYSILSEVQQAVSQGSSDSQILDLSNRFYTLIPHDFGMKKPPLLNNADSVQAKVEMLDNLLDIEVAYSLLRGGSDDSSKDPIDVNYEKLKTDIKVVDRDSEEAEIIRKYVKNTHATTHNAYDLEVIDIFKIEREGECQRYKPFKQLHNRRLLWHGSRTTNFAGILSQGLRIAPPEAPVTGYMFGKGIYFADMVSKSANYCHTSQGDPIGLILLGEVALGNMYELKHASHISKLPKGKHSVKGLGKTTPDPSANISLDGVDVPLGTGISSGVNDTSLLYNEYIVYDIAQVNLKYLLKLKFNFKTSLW

IC50 (Human PARP-1 enzyme) [µM] | in vitro SPA assay PARP-1 pIC50 (Human PARP-1 enzyme) | Compound | minimal effective concentration (PC3 cells) [µM]
0.631 |  | C#Cc1cccc(CC(C)(C#N)c2ccc3cc(CC)c(=O)[nH]c3c2)c1 (racemic) [Compound 168] | 0.1
 | 6.4 | CCc1cc2ccc(C(C)(C#N)CC3COc4ccccc4O3)cc2[nH]c1=O (single isomer, unassigned) [Compound 48] | 1
0.501 |  | CCc1cc2ccc([C@@](C)(C#N)CCOc3ccccc3)cc2[nH]c1=O (single isomer, unassigned) [Compound 150] | 
1.58 |  | Cc1cc2ccc([C@@](C)(C#N)CCOc3ccccc3)cc2[nH]c1=O (single isomer, unassigned) [Compound 164] | 0.316
0.0794 |  | CCc1cc2ccc(C(C)(C#N)Cc3cccc(C(=O)O)c3)cc2[nH]c1=O (stereo not shown) [Compound 10] | 
0.631 |  | CCc1cc2ccc(C(C)(C#N)Cc3cccc(-c4nc(C)no4)c3)cc2[nH]c1=O (stereo not shown) [Compound 11] | 1
0.501 |  | CCc1cc2ccc(C(C)(C#N)Cc3cccc(C(=O)OC)c3)cc2[nH]c1=O (stereo not shown) [Compound 12] | 0.0316
0.398 |  | CCc1cc2ccc(C(C)(C#N)Cc3cccc(C(=O)NC)c3)cc2[nH]c1=O (stereo not shown) [Compound 13] | 
0.398 |  | CCc1cc2ccc(C(C)(C#N)Cc3cccc(NS(C)(=O)=O)c3)cc2[nH]c1=O (stereo not shown) [Compound 14] | 
0.316 |  | CCc1cc2ccc(C(C)(C#N)Cc3cccc(N)c3)cc2[nH]c1=O (stereo not shown) [Compound 15] | 3.16
0.158 |  | CCc1cc2ccc(C(C)(C#N)Cc3cccc(NC(=O)N4CCOCC4)c3)cc2[nH]c1=O (stereo not shown) [Compound 16] | 
0.631 |  | CCc1cc2ccc(C(C)(C#N)Cc3ccccc3Br)cc2[nH]c1=O (stereo not shown) [Compound 104] | 0.316
0.794 |  | CCc1cc2ccc(C(C)(C#N)Cc3ccccc3C)cc2[nH]c1=O (stereo not shown) [Compound 105] | 0.316
0.398 |  | CCc1cc2ccc(C(C)(C#N)Cc3ccccc3F)cc2[nH]c1=O (stereo not shown) [Compound 106] | 0.316
0.251 |  | CCc1cc2ccc(C(C)(C#N)Cc3cccc(C)c3)cc2[nH]c1=O (stereo not shown) [Compound 107] | 1
1.26 |  | CCc1cc2ccc(C(C)(C#N)Cc3ccc(C(F)(F)F)cc3)cc2[nH]c1=O (stereo not shown) [Compound 108] | 
0.794 |  | CCc1cc2ccc(C(C)(C#N)Cc3cccc(C(F)(F)F)c3)cc2[nH]c1=O (stereo not shown) [Compound 109] | 3.16
0.794 |  | CCc1cc2ccc(C(C)(C#N)Cc3cccc(OC(F)(F)F)c3)cc2[nH]c1=O (stereo not shown) [Compound 110] | 0.1
0.251 |  | CCc1cc2ccc(C(C)(C#N)Cc3ccc(C#N)cc3)cc2[nH]c1=O (stereo not shown) [Compound 111] | 
0.2 |  | CCc1cc2ccc(C(C)(C#N)Cc3cccc(F)c3)cc2[nH]c1=O (stereo not shown) [Compound 112] | 1
0.251 |  | CCc1cc2ccc(C(C)(C#N)Cc3cccc(OC)c3)cc2[nH]c1=O (stereo not shown) [Compound 113] | > 10
1 |  | CCc1cc2ccc(C(C)(C#N)Cc3ccc(OC(F)(F)F)cc3)cc2[nH]c1=O (stereo not shown) [Compound 114] | 1
0.316 |  | CCc1cc2ccc(C(C)(C#N)Cc3ccc(F)cc3)cc2[nH]c1=O (stereo not shown) [Compound 115] | 
1 |  | CCc1cc2ccc(C(C)(C#N)Cc3c(F)c(F)c(F)c(F)c3F)cc2[nH]c1=O (stereo not shown) [Compound 116] | 0.316
0.398 |  | CCc1cc2ccc(C(C)(C#N)Cc3ccc(C)cc3)cc2[nH]c1=O (stereo not shown) [Compound 117] | 
0.398 |  | CCc1cc2ccc(C(C)(C#N)Cc3ccc(Br)cc3)cc2[nH]c1=O (stereo not shown) [Compound 118] | 3.16

IC50 (Human PARP-1 enzyme) [µM] | in vitro SPA assay PARP-1 pIC50 (Human PARP-1 enzyme) | Compound | minimal effective concentration (PC3 cells) [µM]
0.316 |  | CCc1cc2ccc(C(C)(C#N)Cc3ccc(OC)cc3)cc2[nH]c1=O (stereo not shown) [Compound 119] | 3.16
0.631 |  | CCc1cc2ccc(C(C)(C#N)Cc3cccc(F)c3F)cc2[nH]c1=O (stereo not shown) [Compound 120] | 0.316
1.58 |  | CCc1cc2ccc(C(C)(C#N)Cc3cccc(Cl)c3Cl)cc2[nH]c1=O (stereo not shown) [Compound 121] | 0.316
1.26 |  | CCc1cc2ccc(C(C)(C#N)Cc3ccc4ccccc4c3)cc2[nH]c1=O (stereo not shown) [Compound 122] | 1
0.158 |  | CCc1cc2ccc(C(C)(C#N)Cc3ccc4c(c3)nnn4C)cc2[nH]c1=O (stereo not shown) [Compound 123] | 3.16
0.501 |  | CCc1cc2ccc(C(C)(C#N)Cc3ccc4c(c3)OCCO4)cc2[nH]c1=O (stereo not shown) [Compound 124] | 1
1 |  | CCc1cc2ccc(C(C)(C#N)Cc3cc(C)cc(C)c3)cc2[nH]c1=O (stereo not shown) [Compound 125] | 0.1
1.58 |  | CCc1cc2ccc(C(C)(C#N)Cc3cc(C(F)(F)F)cc(C(F)(F)F)c3)cc2[nH]c1=O (stereo not shown) [Compound 131] | 
0.794 |  | CCc1cc2ccc(C(C)(C#N)Cc3cc(Br)cc(Br)c3)cc2[nH]c1=O (stereo not shown) [Compound 133] | 
0.398 |  | CCc1cc2ccc(C(C)(C#N)CCOc3ccc(Cl)cc3)cc2[nH]c1=O (stereo not shown) [Compound 146] | 
0.398 |  | CCc1cc2ccc(C(C)(C#N)CCOc3ccc(C)cc3)cc2[nH]c1=O (stereo not shown) [Compound 149] | 
0.398 |  | CCc1cc2ccc(C(C)(C#N)CCOc3ccccc3Cl)cc2[nH]c1=O (stereo not shown) [Compound 152] | 
0.316 |  | CCc1cc2ccc(C(C)(C#N)CCOc3ccccc3Br)cc2[nH]c1=O (stereo not shown) [Compound 153] | 
0.501 |  | CCc1cc2ccc(C(C)(C#N)CCOc3ccc(SC)cc3)cc2[nH]c1=O (stereo not shown) [Compound 155] | 
0.251 |  | CCc1cc2ccc(C(C)(C#N)CCOc3ccccc3C(C)=O)cc2[nH]c1=O (stereo not shown) [Compound 159] | 
1 |  | CCc1cc2ccc(C(C)(C#N)CCOc3ccc4oc(C)c(C)c4c3)cc2[nH]c1=O (stereo not shown) [Compound 162] | 
1.26 |  | CCc1cc2ccc(C(C)(C#N)CCOc3cccc4c3OCCO4)cc2[nH]c1=O (stereo not shown) [Compound 163] | 
0.501 |  | CCc1cc2ccc(C(C#N)(CCOc3ccccc3)C3CC3)cc2[nH]c1=O (stereo not shown) [Compound 166] | 
1.58 |  | CCc1cc2ccc(C(C)(C#N)CCOc3ccc(C(C)(C)C)cc3)cc2[nH]c1=O (stereo not shown) [Compound 167] | 
0.1 |  | CCc1cc2ccc(C(C)(C#N)CC#Cc3cccc(F)c3)cc2[nH]c1=O (stereo not shown) [Compound 184] | 
0.2 |  | Cc1cc2ccc([C@@](C)(C#N)[C@@H]3CCc4cc(C#N)ccc43)cc2[nH]c1=O [Compound 245] | 
0.2 |  | CCc1cc2ccc([C@](C)(C#N)C[C@@H]3CCc4cc(C)ccc4O3)cc2[nH]c1=O [Compound 251] | 
0.2 |  | CCc1cc2ccc([C@@](C)(C#N)C[C@@H]3CCc4cc(C)ccc4O3)cc2[nH]c1=O [Compound 252] | 
0.1 |  | CCc1cc2ccc(C(C#N)(CC)CCOc3ccc(C#N)cc3)cc2[nH]c1=O (stereo not shown) [Compound 271] | 
0.2 |  | Cc1cc2ccc([C@@](C)(C#N)[C@H]3CCc4cc(C#N)ccc43)cc2[nH]c1=O [Compound 389] | 
0.2 |  | CCc1cc2ccc(C(C#N)(CC)C3CCc4ccc(F)cc43)cc2[nH]c1=O (stereo not shown) [Compound 391] | 
